For one experiment, the system named is PrfA. Kind of experiment: PrfA activation in L. monocytogenes strains expressing TagRFP from the actA promoter, grown in media with or without reducing agents. The format is cell-based, Listeria monocytogenes. Conditions: for activation of PrfA in vitro: L. monocytogenes grown in chemically defined media, excess of exogenously added reducing agent; for induction of ActA (FIG. 1): chemically defined media, fluorescent reporter driven by actA promoter; for Optimal concentration for prfA activation: reducing agent added to chemically defined media (Table 1). How it is done:
Experiments were conducted to identify any additional factors required for PrfA activation.
Three different strains were employed: WT 10403S (Lauer et al., J. Bacteriol. (2002) 184:4177-4186; ΔprfA which was an in frame deletion in prfA made by allelic exchange; and PrfA* which has a G145S mutation. The strains were engineered to express TagRFP from the actA promoter (e.g., as reported in Waite et al., PLoS Pathog. (2011)7:e1001326. A chemically defined media detailed in Table 1 was prepared.
Next, a number of reducing agents listed in Table 2 were added to the media.
The three strains were grown in the chemically defined media with or without the addition of the noted reducing agents.

The subject of another experiment is Listeria monocytogenes. Nature of the experiment: Virulence of strains grown with or without reducing agent: bacterial burdens in organs of intravenously infected mice. The class given is in vivo, CD-1 mice. On the procedure:
FIG. 2. In this experiment bacteria were grown in rich media (BHI) or Listeria synthetic media (LSM) with or without reducing agent (TCEP) and injected into mice IV. The data are CFUs at […] in liver and spleens. WT bacteria and a PrfA* strain that has constitutively active PrfA were used.
Prior to infection, bacterial strains were grown to stationary phase overnight in Listeria Synthetic Media (LSM) at 37° C., then diluted into either BHI or LSM, with or without reducing agent (2 mM TCEP) and grown at 37° C. with shaking until the OD600 was approximately 0.5. Cultures were re-suspended in 1× phosphate-buffered saline (PBS) and used to intravenously infect female CD-1 mice between 6 and 8 weeks of age with a final inoculum of 10^5 bacteria. At 48 hrs post-infection, mice were sacrificed and organs collected. Bacterial burdens were enumerated by plating organ homogenates on LB plates and incubating overnight.
WT bacteria and a PrfA* strain that has constitutively active PrfA were used.

The structures appear in SMILES notation.

`O=C(O)CCP(CCC(=O)O)CCC(=O)O` [tris(2-carboxyethyl)phosphine (TCEP), tris(2-carboxyethyl)phosphine]: in the experiment with PrfA, the “activation of PrfA in vitro” value is listed as “recapitulated”, the “induction of ActA (FIG. 1)” value is recorded as “induction of ActA” and the “Optimal concentration for prfA activation” value (“Optimal concentration” below) is 2 mM. The “bacteria in the organs (CFU, liver and spleen), fold more” value in the experiment with Listeria monocytogenes (bacteria grown in LSM plus 2 mM TCEP, IV, 10^5 bacteria, 48 hrs post-infection) was “around 50 fold”. Also, the “activation of PrfA-dependent expression, measured by virulence” value in the experiment on Listeria monocytogenes (defined medium and TCEP, compared with PrfA* strain) is “equivalent to that of a PrfA-constituitive mutant”.
Regarding `O[C@H](CS)[C@H](O)CS` (racemic) [dithiothreitol (DTT), dithiothreitol], in the experiment on PrfA, the “activation of PrfA in vitro” value is given as “recapitulated” and the “Optimal concentration” value was determined as 2 mM.
As for `N[C@@H](CCC(=O)N[C@@H](CS)C(=O)NCC(=O)O)C(=O)O` [Glutathione (reduced), Glutathione], in the experiment on PrfA, the “activation of PrfA in vitro” value is recorded as “sufficient to stimulate activation of PrfA”, the “induction of ActA (FIG. 1)” value was “induction of ActA” and the “Optimal concentration” value stood at 10 mM. Also, the PrfA activation entry in the experiment with PrfA (exogenous glutathione, standard complex broth culture) was “insufficient to stimulate PrfA activation”.
Turning to `N[C@@H](CS)C(=O)O` [L-Cysteine], in the experiment on PrfA, the “induction of ActA (FIG. 1)” value was “induction of ActA” and the “Optimal concentration” value is 10 mM.
For the molecule `OCCS` [2-mercaptoethanol (BME), 2-mercaptoethanol], in the experiment on PrfA, the “activation of PrfA in vitro” value is listed as “recapitulated” and the “Optimal concentration” value is on record as 2 mM.
